# Assay results published in patent US5340800A, “Peptide medicaments for the treatment of disease” (priority 1992, dated 1994).
# Several values for one entry are separate records, joined by “and”; a condition that tells them apart may be missing. Identical values can stand only once. Like-named read-outs stand apart in the source and are kept apart here. No end group written: not given here.
# Experiments:
# [1] = system: polymorphonuclear leukocyte adhesion to endothelial cells activated with IL1; assay type: cell-based, human
# [2] = system: polymorphonuclear leukocyte adhesion to TNF activated endothelial cells; assay type: cell-based, human; conditions: for Average % Change of PMN Adhesion to TNF Activated ECs: average over PMN donors (# donors in parentheses)
# Procedure, shortened: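 Human leukocytes were isolated on Ficoll-Hypaque and labelled for 15 min with 111In-oxide or 51Cr. They were added to TNF-activated HUVEC monolayers (≤5th passage, fibronectin-coated, washed with RPMI/1% FCS) for 30 min at 37 °C, 5% CO2. Adherent radioactivity was counted in quadruplicate, with basal binding to non-activated endothelium as control.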
sequence,measurement,setting,value
"IGWRNVTRLLVFATDDGFHFAGDGKLGAI [Peptide 4-29, NH2 --Ile--Gly--Trp--Arg--Asn--Val--Thr--Arg--Leu--Leu--Val--Phe--Ala--Thr--Asp--Asp--Gly--Phe--His--Phe--Ala--Gly--Asp--Gly--Lys--Leu--Gly--Ala--Ile--COOH]",Percent Change in PMN Adhesion to ECs activated with IL1,"[1]; 10^-7 M, donor 155*, peptide 1 wk 4°",+59%
same,Percent Change in PMN Adhesion to ECs activated with IL1,"[1]; 10^-7 M, donor 272*, peptide 1 wk 4°",+2%
same,Percent Change in PMN Adhesion to ECs activated with IL1,"[1]; 10^-8 M, donor 108*, peptide frozen",+21%
same,Percent Change in PMN Adhesion to ECs activated with IL1,"[1]; 10^-8 M, donor 489*, peptide frozen",-3%
same,activity of the peptide after storage for different times at 4° C.,[2],maintained
same,concentration of peak inhibitory activity in the PMN adhesion assay,[2],10^-5 to 10^-6 M and 10^-5 M
same,inhibitory activity in the PMN adhesion assay (in words),[2],significant inhibitory activity
same,Average % Change of PMN Adhesion to TNF Activated ECs,[2]; 10^-4 M,-30%
same,Percent Change in PMN Adhesion to TNF Activated ECs,"[2]; 10^-4 M, donor 108, peptide frozen",-16%
same,Percent Change in PMN Adhesion to TNF Activated ECs,"[2]; 10^-4 M, donor 272, peptide fresh (second line of donor 272 fresh, last line of table)",+53%
same,Average % Change of PMN Adhesion to TNF Activated ECs,[2]; 10^-5 M,-65%
same,Percent Change in PMN Adhesion to TNF Activated ECs,"[2]; 10^-5 M, donor 108, peptide frozen",-63%
same,Average % Change of PMN Adhesion to TNF Activated ECs,[2]; 10^-6 M,-48%
same,Percent Change in PMN Adhesion to TNF Activated ECs,"[2]; 10^-6 M, donor 100, peptide frozen",-68%
same,Percent Change in PMN Adhesion to TNF Activated ECs,"[2]; 10^-6 M, donor 272, peptide fresh (second line of donor 272 fresh, last line of table)",-41%
same,Percent Change in PMN Adhesion to TNF Activated ECs,"[2]; 10^-6 M, donor 475, peptide fresh",-76%
same,Average % Change of PMN Adhesion to TNF Activated ECs,[2]; 10^-7 M,+3%
same,Percent Change in PMN Adhesion to TNF Activated ECs,"[2]; 10^-7 M, donor 121, peptide frozen",+3%
same,Percent Change in PMN Adhesion to TNF Activated ECs,"[2]; 10^-7 M, donor 155, peptide fresh",+1%
same,Percent Change in PMN Adhesion to TNF Activated ECs,"[2]; 10^-7 M, donor 272, peptide fresh (second line of donor 272 fresh, last line of table)",+42%
same,Percent Change in PMN Adhesion to TNF Activated ECs,"[2]; 10^-7 M, donor 323, peptide fresh, or 4° for 2 wks",+45%
same,Percent Change in PMN Adhesion to TNF Activated ECs,"[2]; 10^-7 M, donor 593, peptide fresh, or 4° for 2 wks",+14%
same,Average % Change of PMN Adhesion to TNF Activated ECs,[2]; 10^-8 M,-12%
same,Percent Change in PMN Adhesion to TNF Activated ECs,"[2]; 10^-8 M, donor 178, peptide fresh",+2%
same,effect of freezing and thawing the peptide on its activity in the adhesion assay,[2]; PMNs from donors 100 and 272,does not significantly effect its activity
